Results: US10760110B2, “Antibiotic testing and screening system” (priority 2017, dated 2020)
≈ marks a conversion by molar mass, not a printed value. Read-outs that look alike come from different tables or passages of the source.

How the values were obtained:
Settings in all cases: Klebsiella pneumoniae
[1] = tested on: K. pneumoniae NVT1001 and its ΔompK35/36 and/or ΔramR mutants; test: Etest MIC, OmpK35/36 loss and AcrAB-TolC overexpression (ΔramR) strains (Table 6); assay type: cell-based, Klebsiella pneumoniae
Method: (§1) The MICs of antibiotics were determined using the Etest (Biodisk AB, Sweden) according to the manufacturer's instructions. The MICs from the Etest, which fall between standard two-fold dilutions, were rounded up to the next highest two-fold value. The MICs of ceftazidime and cefotaxime against K. pneumoniae NVT1001 harbouring the pACYC177 plasmid with blaOXA-48 were further determined using a broth microdilution test according to the recommendations of the CLSI,^25 and the results were interpreted according to the breakpoints established by the CLSI in 2017.^25 Meanwhile, due to the lack of CLSI breakpoints in 2016 and 2017, the results for cephalothin were interpreted according to the breakpoints established by the CLSI in 2015,^26 and the results for moxifloxacin were interpreted according to the breakpoints established by the EUCAST in 2017.^27

[2] = tested on: K. pneumoniae NVT1001 ΔramRΔompK35/36 mutant and its revertants; test: Etest MIC, ΔramRΔompK35/36 mutant and its revertants (Table 7); assay type: cell-based
Text: The allelic-exchange method was used to restore the wild-type gene in the K. pneumoniae NVT1001 mutants with constructed chromosome-mediated resistance mechanisms, as described by Tsai et al.^19 Briefly, a DNA fragment of the entire wild-type gene sequence along with flanking regions was amplified from K. pneumoniae NVT1001 using PCR with specific primers. The resulting PCR fragment was digested and then cloned into pUT-KB. For homologous recombination, this plasmid was transformed into E. coli S17-1 λpir^23 via electroporation and mobilized into the K. pneumoniae NVT1001 mutant via conjugation. […] After incubation in 20 mL BHI broth for 6 hours at 37° C. in the absence of kanamycin, the fully grown cultures were spread onto LB agar plates supplemented with 10% sucrose. After the double crossover occurred, the sucrose-resistant and kanamycin-susceptible colonies were selected, and the restoration of the wild-type gene was confirmed via DNA sequencing.
as §1

[3] = tested on: K. pneumoniae NVT1001 strains with Sul/Dfr plasmids; test: Etest MIC of folate pathway inhibitors, OmpK35/36 loss, ΔramR and/or drug-resistant target enzyme (Table 15); assay type: cell-based, Klebsiella pneumoniae
Method: DNA fragments of the resistance genes along with their flanking regions were amplified from clinical plasmids via PCR with specific primer pairs. The resulting PCR fragments were digested and then cloned into the plasmid pACYC177 or pACYC184. The resulting plasmids were then transformed into K. pneumoniae strain NVT1001 via electroporation. The recombinant bacteria were plated onto LB agar plates containing kanamycin (50 mg/L) or chloramphenicol (50 mg/L), and the presence of the cloned gene was confirmed via PCR and DNA sequencing.
as §1

**Q.** What does the source list for `Cc1cc(NS(=O)(=O)c2ccc(N)cc2)no1` [Sulfamethoxazole]?
**A.** MIC ([1]; WT, NVT1001): 256 µg/mL (≈ 1.01 mM); MIC ([1]; Δ35, ΔompK35 mutant): 256 µg/mL (≈ 1.01 mM); MIC ([1]; Δ35/36, ΔompK35/36 mutant): > 1020 µg/mL; MIC ([1]; Δ36, ΔompK36 mutant): > 1020 µg/mL; MIC ([1]; ΔramR mutant): > 1020 µg/mL; MIC ([1]; ΔramRΔ35, ΔramRΔompK35 mutant): > 1020 µg/mL; MIC ([1]; ΔramRΔ35/36, ΔramRΔompK35/36 mutant): > 1020 µg/mL; MIC ([1]; ΔramRΔ36, ΔramRΔompK36 mutant): > 1020 µg/mL; MIC ([2]; ΔramRΔompK35/36::ompK35/36 revertant): > 1020 µg/mL; MIC ([2]; ΔramRΔompK35/36::ompK35 revertant): > 1020 µg/mL; MIC ([2]; ΔramRΔompK35/36::ompK36 revertant): > 1020 µg/mL; MIC ([2]; ΔramRΔompK35/36::ramR revertant): > 1020 µg/mL; MIC ([2]; ΔramRΔompK35/36::ramR::ompK35/36 revertant): 256 µg/mL; MIC ([2]; ΔramRΔompK35/36::ramR::ompK35 revertant): > 1020 µg/mL; MIC ([2]; ΔramRΔompK35/36::ramR::ompK36 revertant): 256 µg/mL; MIC ([2]; ΔramRΔompK35/36 mutant): > 1020 µg/mL; MIC ([3]; DfrA1 on pACYC177, WT (NVT1001), read-out: MIC): 256 µg/mL; MIC ([3]; DfrA1 on pACYC177, ΔompK35/36 mutant): > 1020 µg/mL; MIC ([3]; DfrA1 on pACYC177, ΔompK35 mutant): > 1020 µg/mL; MIC ([3]; DfrA1 on pACYC177, ΔompK36 mutant): > 1020 µg/mL; MIC ([3]; DfrA1 on pACYC177, ΔramR mutant): > 1020 µg/mL; MIC ([3]; DfrA1 on pACYC177, ΔramRΔompK35/36 mutant): > 1020 µg/mL; MIC ([3]; DfrA1 on pACYC177, ΔramRΔompK35 mutant): > 1020 µg/mL; MIC ([3]; DfrA1 on pACYC177, ΔramRΔompK36 mutant): > 1020 µg/mL; MIC ([3]; DfrA16 on pACYC177, WT (NVT1001), read-out: MIC): 256 µg/mL; MIC ([3]; DfrA16 on pACYC177, ΔompK35/36 mutant): > 1020 µg/mL; MIC ([3]; DfrA16 on pACYC177, ΔompK35 mutant): > 1020 µg/mL; MIC ([3]; DfrA16 on pACYC177, ΔompK36 mutant): > 1020 µg/mL; MIC ([3]; DfrA16 on pACYC177, ΔramR mutant): > 1020 µg/mL; MIC ([3]; DfrA16 on pACYC177, ΔramRΔompK35/36 mutant): > 1020 µg/mL; MIC ([3]; DfrA16 on pACYC177, ΔramRΔompK35 mutant): > 1020 µg/mL; MIC ([3]; DfrA16 on pACYC177, ΔramRΔompK36 mutant): > 1020 µg/mL; MIC ([3]; Sul1 on pACYC177, WT (NVT1001), read-out: MIC): > 1020 µg/mL; MIC ([3]; Sul1 on pACYC177, ΔompK35/36 mutant): > 1020 µg/mL; MIC ([3]; Sul1 on pACYC177, ΔompK35 mutant): > 1020 µg/mL; MIC ([3]; Sul1 on pACYC177, ΔompK36 mutant): > 1020 µg/mL; MIC ([3]; Sul1 on pACYC177, ΔramR mutant): > 1020 µg/mL; MIC ([3]; Sul1 on pACYC177, ΔramRΔompK35/36 mutant): > 1020 µg/mL; MIC ([3]; Sul1 on pACYC177, ΔramRΔompK35 mutant): > 1020 µg/mL; MIC ([3]; Sul1 on pACYC177, ΔramRΔompK36 mutant): > 1020 µg/mL; MIC ([3]; Sul2 on pACYC177, WT (NVT1001), read-out: MIC): > 1020 µg/mL; MIC ([3]; Sul2 on pACYC177, ΔompK35/36 mutant): > 1020 µg/mL; MIC ([3]; Sul2 on pACYC177, ΔompK35 mutant): > 1020 µg/mL; MIC ([3]; Sul2 on pACYC177, ΔompK36 mutant): > 1020 µg/mL; MIC ([3]; Sul2 on pACYC177, ΔramR mutant): > 1020 µg/mL; MIC ([3]; Sul2 on pACYC177, ΔramRΔompK35/36 mutant): > 1020 µg/mL; MIC ([3]; Sul2 on pACYC177, ΔramRΔompK35 mutant): > 1020 µg/mL; MIC ([3]; Sul2 on pACYC177, ΔramRΔompK36 mutant): > 1020 µg/mL; MIC ([3]; no supplemental plasmid, WT (NVT1001), read-out: MIC): 256 µg/mL; MIC ([3]; no supplemental plasmid, ΔompK35/36 mutant): > 1020 µg/mL; MIC ([3]; no supplemental plasmid, ΔompK35 mutant): 256 µg/mL; MIC ([3]; no supplemental plasmid, ΔompK36 mutant): > 1020 µg/mL; MIC ([3]; no supplemental plasmid, ΔramR mutant): > 1020 µg/mL; MIC ([3]; no supplemental plasmid, ΔramRΔompK35/36 mutant): > 1020 µg/mL; MIC ([3]; no supplemental plasmid, ΔramRΔompK35 mutant): > 1020 µg/mL; MIC ([3]; no supplemental plasmid, ΔramRΔompK36 mutant): > 1020 µg/mL
